Entries after “also recorded” stand apart in the source; their conditions may differ. Like-named read-outs stand apart in the source and are kept apart here. Each block holds one compound with its values, some of them ahead of it.
Key:
[1] = system: T. brucei strain 427 bloodstream forms; experiment: Anti-trypanosomal activity on T. brucei, resazurin dose response; type: cell-based, Trypanosoma brucei; settings: for SI (Selectivity index): relative to HEK293T and HepG2 cells vs T. brucei
Procedure: T. brucei strain 427 bloodstream forms were cultivated at 37 °C with 5% CO2 in HMI-9 medium supplemented with 10% FBS. Cultivated parasites (2,500) were seeded in 384 well plates with the natural compounds and incubated for 3 days. After the incubation, the parasites were exposed to 120 µM of resazurin sodium salt (10.0 µL of a 720 µM solution in water) for 5 h. Then, the parasites were fixed with 4% PFA and the assay plates were read by Victor 3™ (PerkinElmer, Waltham, MA, USA) at 530 nmEx/590 nmEm. Pentamidine was used as a reference drug and DMSO 0.5% was used as a drug-negative control.
(§1) The acquired images from the high content intracellular T. cruzi screening were subjected to in-house software to quantify cell numbers, parasite numbers, and infection ratio as previously described. Each compound’s activity was normalized based on values of drug positive and negative control (120 nM of pentamidine for T. brucei and T. cruzi assays, 83.0 µM of chlorpromazine for cytotoxicity, and DMSO as 0% drug activity for negative control). Dose response curves were fitted by sigmoidal dose-response with variable slope, equation described as Y = Bottom + (Top − Bottom)/(1 + 10^(LogEC5 − X) − HillSlpe) using GraphPad Prism 6 Software (GraphPad Software, Suite 230 La Jolla, CA, USA).

[2] = Cytotoxicity assay, resazurin, HEK293T; type: cell-based, human; settings: human
Procedure: (§2) HEK293T and HepG2 cells were cultured at 37 °C with 5% CO2 in Dulbecco’s modified eagle medium containing 10% FBS. Both cell types were plated individually in 384 well plates for testing the natural compounds at 3-fold dilution from 100 µM in 10-points concentration and incubated for 3 days. To determine viability, 10.0 µL of a 280 µM solution of resazurin sodium salt in water was added to the cells in the assay plate for at least 5 h (final concentration, 40.0 µM of resazurin) and resazurin reduction was measured with a Victor 3^TM fluorimeter (PerkinElmer) at 530 nmEx/590 nmEm.
as §1

[3] = Cytotoxicity assay, resazurin, HepG2; type: cell-based, human; settings: human
Procedure: as §2, §1

[4] = system: HEK293T cells; experiment: Cytotoxicity assay, resazurin, HEK293T; type: cell-based, human; settings: pure compounds up to 100 µM
Procedure: as §2, §1

[5] = system: HepG2 cells; experiment: Cytotoxicity assay, resazurin, HepG2; type: cell-based, human; settings: pure compounds up to 100 µM
Procedure: as §2, §1

[6] = system: intracellular amastigotes of T. cruzi Y strain; experiment: Anti-trypanosomal activity on intracellular T. cruzi Y strain, high content image assay; type: cell-based, Trypanosoma cruzi; settings: for activity against intracellular T. cruzi (in words): 50.0 µM; for decrease of parasite survival / reduction of parasites growth compared to the DMSO control: 50.0 μM, 48 h, U2OS host cells
Procedure: (§3) The assay for activity against T. cruzi Y strain was performed as previously described. Briefly, T. cruzi parasites were maintained in form of Tissue Culture Trypomastigote (TCT) by circulation in LLC-MK2 cell line (CCL-7, ATTC, Manassas, VA, USA). Seven days after the infection, the supernatant containing TCT parasites was collected and used to reinfect new cultures of LLC-MK2. The U2OS human cell (HTB-96, ATCC), cultivated in DMEM-high glucose media supplemented with 10% heat inactivated FBS, was used for the in vitro assay preparation. The cells were infected with the TCT form of T. cruzi. A homogeneous mixture of parasites and cells in DMEM-low glucose media, supplemented with 2% heat inactivated FBS, and was seeded into 384-well plates at 50.0 µL/well. The test compounds (final concentration of 50.0 µM) were added in 10.0 µL of 6% DMSO (final concentration, 1% DMSO) and the cells were incubated for 48 h at 37 °C, 5% CO2. After the incubation, the cells and parasites were fixed with 4% PFA and stained with 5.0 µM Draq5. Fluorescent images were acquired from each assay well using an Operetta microscope (Perkin Elmer).
as §1

[7] = system: U2OS human cell; experiment: Host cell number in the T. cruzi high content image assay; type: cell-based; settings: 50.0 μM, 48 h, U2OS infected with T. cruzi
Procedure: as §3
The acquired images from the high content intracellular T. cruzi screening were subjected to in-house software to quantify cell numbers, parasite numbers, and infection ratio as previously described. […]

[8] = system: T. brucei rhodesiense; design: method as in PMID 21157686; settings: cited from earlier work
[9] = system: Plasmodium falciparum; design: method as in PMID 21157686; settings: cited from earlier work
[10] = Trypanosoma brucei, 72 h, bloodstream forms, 3 days incubation, resazurin, read-out: T. brucei EC50 Values
[11] = HEK293T cells, HEK293T, 3 days, highest concentration 100 µM, read-out: Cytotoxicity CC50 Values HEK293T
[12] = HepG2 cells, HepG2, 3 days, highest concentration 100 µM, read-out: Cytotoxicity CC50 Values HepG2

SMILES: CC(C)[C@@H](C)CC[C@@H](C)[C@H]1CC[C@H]2[C@@H]3CCC4=CC(=O)CC[C@]4(C)[C@H]3CC[C@]12C [Compound 2, (24S)-ergost-4-ene-3-one]
EC50 [1, 10]: 5.47 ± 0.27 µM | SI (Selectivity index) [1]: >18.3 | CC50 at 3 days [2, 11]: > 100 µM | CC50 at 3 days [3, 12]: > 100 µM

SMILES: CC(C)CCC[C@@H](C)[C@H]1CC[C@H]2C3=C(CC[C@]12C)[C@@]1(C)CC[C@H](O)C[C@]1(O)[C@H](O)[C@H]3O [Compound 4, cholest-8-ene-3β,5α,6β,7α-tetraol]
EC50 [1, 10]: 14.6 ± 1.36 µM | SI (Selectivity index) [1]: >6.8 | CC50 at 3 days [2]: > 100 µM | CC50 at 3 days [3]: > 100 µM

SMILES: CC(C)CCC[C@@H](C)[C@H]1CCC2=C3[C@H](O)C[C@H]4C[C@@H](O)CC[C@]4(C)[C@H]3CC[C@@]21C [Compound 5, 5α-cholest-8(14)-ene-3β,7α-diol]
EC50 ([1]; Trypanosoma brucei, 72 h, read-out: T. brucei EC50 Values): > 30 µM | activity against T. brucei (in words) ([1]; bloodstream forms): inactive | CC50 at 3 days ([2]; HEK293T, 3 days, highest concentration 100 µM, read-out: Cytotoxicity CC50 Values HEK293T): > 100 µM | cytotoxicity on HEK293T (in words) [4]: did not show any cytotoxicity | CC50 at 3 days ([3]; HepG2, 3 days, highest concentration 100 µM, read-out: Cytotoxicity CC50 Values HepG2): > 100 µM | cytotoxicity on HepG2 (in words) [5]: did not show any cytotoxicity | activity against intracellular T. cruzi (in words) [6]: significant activity; also recorded: significant inhibitory effects; also recorded: active | decrease of parasite survival / reduction of parasites growth compared to the DMSO control [6]: 97.1% | reduction of the host cells [7]: not significantly reduced

SMILES: CN(C)CCCN1c2ccccc2Sc2ccc(Cl)cc21 [Chlorpromazine, reference compound]
CC50 at 3 days [2, 11]: 19.9 ± 3.48 µM | CC50 at 3 days [3, 12]: 16.5 ± 0.45 µM

EC50 [1, 10]: 1.17 ± 0.14 µM | EC50 ([1]; bloodstream forms, 3 days incubation, resazurin, read-out: T. brucei EC50 Values): 1.57 ± 0.14 µM
SMILES: CC(C)CCC[C@@H](C)[C@H]1CC[C@@H]2[C@]1(C)CC[C@@H]1[C@@]3(C)CC[C@H](O)C[C@@H]3[C@@H](C=O)[C@]12O [Compound 3, astropectenol A]
SI (Selectivity index) [1]: >63.7 | CC50 at 3 days [2, 11]: > 100 µM | CC50 at 3 days [3, 12]: > 100 µM

EC50 [1, 10]: 5.34 ± 0.47 µM | EC50 ([1]; Trypanosoma brucei, bloodstream forms, resazurin, read-out: T. brucei EC50): 1.69 ± 0.12 µg/mL | reduction of the host cells [7]: 33%
SMILES: C=C1CO[C@H]2/C=C(\C)CC[C@@H]3O[C@]3(C)CC/C=C(\C)CC[C@@]12O [Compound 1, laevigatol B]
SI (Selectivity index) [1]: >18.7 | CC50 at 3 days [2, 11]: > 100 µM | cytotoxicity on HEK293T (in words) [4]: did not display cytotoxicity | CC50 at 3 days [3, 12]: > 100 µM | cytotoxicity on HepG2 (in words) [5]: did not display cytotoxicity | activity against intracellular T. cruzi (in words) [6]: significant activity; also recorded: significant inhibitory effects; also recorded: active | decrease of parasite survival / reduction of parasites growth compared to the DMSO control [6]: 84.8%

EC50 [1, 10]: 0.015 ± 0.003 µM
SMILES: N=C(N)c1ccc(OCCCCCOc2ccc(C(=N)N)cc2)cc1 [Pentamidine, reference compound]
SI (Selectivity index) [1]: <26.7 | SI (Selectivity index) ([1]; listed as pentamidine): 26.7 | CC50 at 3 days [2, 11]: < 0.4 µM | CC50 at 3 days [3, 12]: < 0.4 µM

SMILES: C/C1=C\CC/C(C)=C/C[C@](O)(C(C)C)CC/C(C)=C/CC1 [serratol]
activity against T. brucei rhodesiense (in words) [8]: active | activity against Plasmodium falciparum (in words) [9]: active

From publication PMC6271609, “Secondary Metabolites from Vietnamese Marine Invertebrates with Activity against Trypanosoma brucei and T. cruzi” (Molecules, 2014)
